Data published in US20120035187A1 (priority 2009, published 2012).

What was measured:
[1] = target: T1, human amyloid β peptide (Homo sapiens, UniProt P05067); assay: Agglutination of amyloid β peptide, thioflavine T method; assay type: biochemical; conditions: 45 μl of 200 nM test sample solution + 15 μl amyloid β peptide solution, 37° C., six days, thioflavine T fluorescence; for inhibition at 0.2 µM: read-out: Inhibition rate (%) of agglutination of amyloid β peptide
T1 construct: purchased AnaSpec Inc., CA, USA
T1 sequence (P05067 672-711): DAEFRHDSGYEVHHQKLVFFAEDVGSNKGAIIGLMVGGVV
Procedure: The filtrate was made into a test sample solution by adjusting the concentration to 200 nM using Tris-HCl buffer.
The agglutination of amyloid β peptide was measured by a method using thioflavine T (see Hilal A. Lashuel et al., Journal of Biological Chemistry, Vol. 277, No. 45, pp. 42881-42890 (2002)). Thioflavine T binds to […] structure of agglutinated amyloid β peptide and produces fluorescence. The amount of the fluorescence was determined using a fluorometric plate reader and used as an index of the agglutination of amyloid β peptide. When the agglutination of amyloid β peptide is inhibited by the test sample, fluorescence of Thioflavine T is decreased. The effects of the test samples on the agglutination of amyloid β peptide were investigated by the method. A human amyloid β peptide, having the amino acid sequence of SEQ ID NO:2 consisting of 40 amino acids, commercialized by AnaSpec Inc., CA, USA, was dissolved in sterilized distilled water to give a concentration of 400 μM for use. Test samples were diluted with Tris-HCl buffer. In a reaction vessel, 15 μl of […] admixed with 45 μl of a 200 nM test sample solution and allowed to react at 37° C. for six days. After the reaction, 50 μl of the reaction mixture was withdrawn, admixed with 450 μl of a 10 μM Thioflavine T solution, and after 30 minutes, the resulting fluorescence was measured using a fluorometer (excitation wavelength: 450 nm, […]: 482 nm). The fluorescent intensity of Thioflavine T only was regarded as 0%, and that of the solution, prepared by mixing 15 μl of a […] amyloid β peptide solution and 45 μl of Tris-HCl buffer and allowing to react at 37° C. for six days, was regarded as 100%. Inhibition rate (%) of the agglutination of amyloid β peptide was determined by the steps of measuring the relative fluorescence intensity in the case of using each test sample solution for the reaction, and subtracting the measured value from 100%.

[2] = tested on: ICR mice injected with amyloid β fragment; assay: Passive avoidance test, mouse injected with amyloid β fragment; assay type: in vivo; conditions: for passive avoidance test (in words): mice injected with amyloid β fragment, vs amyloid β fragment alone; for Passive avoidance reaction: mouse administered with amyloid β fragment
Procedure: One hundred of ICR mice (male, five weeks of age, body weight of 25 to 30 g, commercialized by Charles Liver Laboratories Japan Inc., Kanagawa, Japan) were randomly divided into 10 groups, each consisting 10 heads, and raised separately until the experiment was terminated. Mice, which had been anesthetized with chloral hydrate (administered into the abdominal cavity in an amount of 350 mg/kg body weight, commercialized by SIGMA Corporation, Tokyo, Japan), were fixed at their dorsal decubitis parts, incised along their medial heads, and after confirming born suture, 9 nmol/6 μl/mouse of a solution of amyloid β fragment (β-Amyloid25-35), represented by amino acid sequence of SEQ ID No.: 1, was injected into their brain ventricles by puncturing at 1.0-mm left side and 0.5-mm backside from bregmas with a depth of 3 mm (the administration method is referred to “Brain Research”, Vol. 706, pp. 181-193 (1996)). A micro syringe with an […] stainless needle (3 mm length) was used for injection. The injection site was determined by confirming the staining at right-and-left lateral ventricles of the frontal section, dorsal third ventricle, and ventral third ventricle by injecting an Evans' Blue solution (0.3 μg/0.3 μl) in place of the solution of amyloid β fragment. The scalps were sutured after injection, any one of the compounds was administered intraperitoneally once a day over 13 days, and the behavioral score was determined by the method described below.
The captioned test is the one for evaluating animals' avoidance behavior to the once experienced aversive stimulus (electric stimulus) as an index of memory. In this experiment, step-through test was selected as a passive avoidance test, which uses the nature of mouse who favors dark room. Using an apparatus having a bright room and a dark room connected via a door, a mouse was placed in the bright room, and measured a time required for moving into the dark room as an index of memory. The passive avoidance test was performed on 9 to 12 days after the injection of amyloid β fragment into the ventricle. On the 9th day after the administration, the mouse was placed in the bright room (1,000 lux, 30-cm in depth, 30-cm in width and 15-cm in height) for a minute, and then placed in the dark room (30-cm in depth, 30-cm in width and 15-cm in height) for two minutes to be acclimatized. On the 10th day after the administration, the mouse was further acclimatized similarly as above. On the 11th day after the administration, the mouse was placed in the center of the bright room, and when the mouse moved into the dark room, the door between the rooms was immediately closed and the electric stimulus (0.8 mA, for a second) was given to the mouse. After 24 hours (on the 12th day after the administration), the mouse was placed in the center of the bright room as had been placed in the previous day, and the time required for moving into the dark room was measured as a passive avoidance reaction. When the mouse memorized the aversive electric stimulus, the passive avoidance reaction was elongated.

[3] = tested on: microglia; assay: NO production from microglia in the presence of LPS; assay type: cell-based, rat; conditions: concrete data not shown
[4] = 50 μg/kg body weight i.p. once a day
[5] = 500 μg/kg body weight i.p. once a day

Compound | Inhibition rate (%) of agglutination of amyloid β peptide [1] [%] | passive avoidance test (in words) [2, 4] | passive avoidance test (in words) [2, 5] | Passive avoidance reaction ([2]; dose 50 μg/kg body weight) [s] | Passive avoidance reaction ([2]; dose 500 μg/kg body weight) [s] | suppressing NO production from microglia [3] | inhibition at 0.2 µM [1] [%] | Passive avoidance reaction ([2]; dose 5 μg/kg body weight) [s]
CCN1C=CC(=CC=C(C=Cc2cc[n+](CC)c3ccccc23)c2cc[n+](CC)c3ccccc23)c2ccccc21.[I-].[I-] [NK-4] | 73 | significant improvement | significant improvement | 135 ± 24 | 164 ± 16 | actions of suppressing NO production |  | 
CCCN1C=CC(=CC=C(C=Cc2cc[n+](CCC)c3ccccc23)c2cc[n+](CCC)c3ccccc23)c2ccccc21.[I-].[I-] [NK-234] |  |  | significant improvement |  | 166 ± 8 | actions of suppressing NO production |  | 
CC[n+]1ccccc1/C=C/c1ccc(N(C)C)cc1 [NK-557] |  |  |  |  |  |  | 95 | 
CCCCN1C=C/C(=C/C=C(/C=C/c2cc[n+](CCCC)c3ccccc23)c2cc[n+](CCCC)c3ccccc23)c2ccccc21 [NK-26] |  | significant improvement | significant improvement | 160 ± 14 | 144 ± 13 | actions of suppressing NO production |  | 84 ± 25
CCN1/C(=C/C=C(/C=C/c2sc3ccccc3[n+]2CC)c2sc3ccccc3[n+]2CC)Sc2ccccc21.[I-].[I-] [NK-100] |  |  |  |  |  |  | 99 | 
